According to US20260250250A1, “3-(SULPHONYL OR SULFONIMIDOYL)PROP-2-EN-1-YL]-2-OXO-1,2-DIHYDROPYRIDINE-3-CARBOXAMIDE DERIVATIVES” (Flinder Therapeutics B.V., priority 2022, published 2026):

What was measured:
[1] = system: bladder carcinoma RT4 cell line; experiment: TNF-α-induced cytotoxicity assay (CellTiter-Glo viability); type: cell-based; settings: Homo sapiens, RT-4, 72 h
Summary of the method: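 RT4 bladder carcinoma cells, 1000 per well, stimulated with 1.25 ng/mL TNFα together with compound for 72 h at 37° C., 5% CO2. Viability read by CellTiter-Glo luminescence, proportional to cellular ATP, as a measure of HOIP-dependent cytotoxicity.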

[2] = biological target: T1, human E3 ubiquitin-protein ligase RNF31 (HOIP) (Homo sapiens, UniProt Q96EP0); experiment: Cell-free HTRF-based HOIP inhibition assay; type: biochemical
T1 sequence (Q96EP0 695-1072 limits assumed): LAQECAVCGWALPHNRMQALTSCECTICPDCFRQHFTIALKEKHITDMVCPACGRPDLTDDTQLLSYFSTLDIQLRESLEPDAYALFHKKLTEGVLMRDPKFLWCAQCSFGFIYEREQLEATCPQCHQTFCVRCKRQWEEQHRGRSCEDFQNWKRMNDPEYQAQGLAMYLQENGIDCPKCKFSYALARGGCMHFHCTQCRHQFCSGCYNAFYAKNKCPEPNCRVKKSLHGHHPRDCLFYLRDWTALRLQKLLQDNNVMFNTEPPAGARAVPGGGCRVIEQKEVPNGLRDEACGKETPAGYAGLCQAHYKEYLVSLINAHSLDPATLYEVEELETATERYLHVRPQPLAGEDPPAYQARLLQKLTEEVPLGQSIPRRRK
Summary of the method: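 Recombinant human HOIP fragment (E. coli) preincubated with compounds (100-0.005 μM, 1% DMSO) and E1 for 1 h at 25° C. E2 and substrates then added; reaction 2.5 h at 25° C. HTRF read-out, excitation 337 nm, emissions 665/620 nm.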

NF-κB signaling pathway = experiment: Cell-based dual luciferase NF-κB reporter assay (HEK293 cells, TNF stimulated); settings: Homo sapiens, HEK293
Summary of the method: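 HEK293 cells transfected with Firefly luciferase and NF-κB-response-element NanoLuc plasmids; compounds at 100–0.005 µM in 1% DMSO. Cells stimulated with 2.5 ng/mL TNF 30 min after compound addition. Firefly and NanoLuc activities read after 6 h by Nano-Glo dual-luciferase detection.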

SMILES | IC50 [2] | IC50 (NF-κB signaling pathway) | IC50 [1]
N=S(=O)(/C=C/CNC(=O)c1cc2c([nH]c1=O)CCCC2)c1ccccc1 (stereo not drawn) [Example 60, N-[(2E)-3-[imino(oxo)phenyl-λ^6-sulfanyl]prop-2-en-1-yl]-2-oxo-1,2,5,6,7,8-hexahydroquinoline-3-carboxamide] | ≤ 1000 nM | ≤ 1000 nM | ≤ 10000 nM
Cc1nnc(COC(=O)N2CCc3[nH]c(=O)c(C(=O)NC/C=C/S(=O)(=O)c4ccccc4)cc3C2)o1 [Example 71, (5-methyl-1,3,4-oxadiazol-2-yl)methyl 3-{[(2E)-3-(benzenesulfonyl)prop-2-en-1-yl]carbamoyl}-2-oxo-1,2,5,6,7,8-hexahydro-1,6-naphthyridine-6-carboxylate] | ≤ 1000 nM | ≤ 100000 nM | ≤ 100000 nM
O=C(NC/C=C/S(=O)(=O)c1ccccc1)c1cc2c([nH]c1=O)CCN(C(=O)OCCc1ccco1)C2 [Example 89, 2-(furan-2-yl)ethyl 3-{[(2E)-3-(benzenesulfonyl)prop-2-en-1-yl]carbamoyl}-2-oxo-1,2,5,6,7,8-hexahydro-1,6-naphthyridine-6-carboxylate] | ≤ 1000 nM | ≤ 10000 nM | ≤ 1000 nM
CC(C)C1CCc2[nH]c(=O)c(C(=O)NC/C=C/S(=O)(=O)c3ccccc3)cc2C1 (stereo not drawn) [Example 46, N-[(2E)-3-(benzenesulfonyl)prop-2-en-1-yl]-2-oxo-6-(propan-2-yl)-1,2,5,6,7,8-hexahydroquinoline-3-carboxamide] | ≤ 1000 nM | ≤ 1000 nM | ≤ 1000 nM

Now from value to compound, other results behind:

IC50 [2] | IC50 (NF-κB signaling pathway) | SMILES | IC50 [1]
≤ 100 nM | ≤ 100 nM | N#Cc1ccc(S(=O)(=O)/C=C/CNC(=O)c2cc3c([nH]c2=O)CCCC3)cc1 [Example 56, N-[(2E)-3-(4-cyanobenzenesulfonyl)prop-2-en-1-yl]-2-oxo-1,2,5,6,7,8-hexahydroquinoline-3-carboxamide] | ≤ 1000 nM
≤ 1000 nM | ≤ 10000 nM | COc1ccc(S(=N)(=O)/C=C/CNC(=O)c2cc(-c3ccccc3)c[nH]c2=O)cc1F (stereo not drawn) [Example 149, N-[(2E)-3-[(3-fluoro-4-methoxyphenyl)(imino)oxo-λ^6-sulfanyl]prop-2-en-1-yl]-2-oxo-5-phenyl-1,2-dihydropyridine-3-carboxamide] | ≤ 10000 nM
